In ChEMBL document CHEMBL1137424, “Array synthesis of progesterone receptor antagonists: 3-aryl-1,2-diazepines” (Bioorg Med Chem Lett, 2006):

Legend:
Progesterone receptor [1] = biological target: T1, Progesterone receptor (Homo sapiens, UniProt P06401); assay: Binding affinity at PR by fluorescence binding assay
T1 sequence (P06401 whole entry): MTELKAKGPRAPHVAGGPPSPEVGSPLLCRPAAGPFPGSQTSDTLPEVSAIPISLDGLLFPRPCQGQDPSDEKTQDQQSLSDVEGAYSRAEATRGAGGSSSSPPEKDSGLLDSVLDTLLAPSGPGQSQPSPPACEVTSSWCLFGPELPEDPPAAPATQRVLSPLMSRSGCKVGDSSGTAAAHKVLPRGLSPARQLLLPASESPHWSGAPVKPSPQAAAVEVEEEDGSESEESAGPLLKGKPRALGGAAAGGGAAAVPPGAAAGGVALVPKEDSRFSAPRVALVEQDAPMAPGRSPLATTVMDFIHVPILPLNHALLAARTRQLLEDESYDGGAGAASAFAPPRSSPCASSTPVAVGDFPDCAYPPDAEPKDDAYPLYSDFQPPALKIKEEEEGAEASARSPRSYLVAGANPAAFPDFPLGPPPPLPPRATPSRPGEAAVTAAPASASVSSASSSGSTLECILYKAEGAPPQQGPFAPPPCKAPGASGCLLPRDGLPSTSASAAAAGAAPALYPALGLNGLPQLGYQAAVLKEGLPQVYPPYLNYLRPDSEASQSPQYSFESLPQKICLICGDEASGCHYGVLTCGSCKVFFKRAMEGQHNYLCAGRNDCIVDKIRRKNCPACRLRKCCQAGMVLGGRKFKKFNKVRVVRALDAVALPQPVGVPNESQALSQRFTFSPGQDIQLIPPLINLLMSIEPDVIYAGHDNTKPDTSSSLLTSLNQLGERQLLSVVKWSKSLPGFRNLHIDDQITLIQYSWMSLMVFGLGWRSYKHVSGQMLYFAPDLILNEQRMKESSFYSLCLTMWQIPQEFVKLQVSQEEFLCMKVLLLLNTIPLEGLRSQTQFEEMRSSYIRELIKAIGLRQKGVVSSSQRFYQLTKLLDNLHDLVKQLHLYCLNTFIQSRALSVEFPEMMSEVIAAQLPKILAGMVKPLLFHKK

Progesterone receptor [2] = biological target: T1, Progesterone receptor; assay: Antagonist activity against PR beta-mediated transactivation of MMTV luciferase reporter gene in BacMam transduced progesterone-stimulated CV1 cells; assay type: functional, cell-based, CV-1

Question: With O=[N+]([O-])c1ccc(C2=NN(S(=O)(=O)c3ccc(OC(F)(F)F)cc3)CCCC2)cc1 as the compound, how does the Ki (Progesterone receptor [1]) read?
Answer: The Ki was 50.1 nM.

Question: And the IC50 (Progesterone receptor [2])?
Answer: Its IC50 is 158 nM.

Question: Which Ki (Progesterone receptor [1]) does the source give for O=S(=O)(c1ccc(Br)s1)N1CCCCC(c2ccc(Cl)c(Cl)c2)=N1 here?
Answer: The Ki was 25.1 nM.

Question: And the IC50 (Progesterone receptor [2])?
Answer: The IC50 was 316 nM.

Question: What does the source list for O=S(=O)(c1cccc(Cl)c1)N1CCCCC(c2ccc(Cl)cc2)=N1?
Answer: Ki (Progesterone receptor [1]): 631 nM; IC50 (Progesterone receptor [2]): 1260 nM

Question: Which results are given for O=S(=O)(c1ccc(Cl)cc1)N1CCCCC(c2cccc(F)c2)=N1?
Answer: Ki (Progesterone receptor [1]): 794 nM; IC50 (Progesterone receptor [2]): 501 nM

Question: With N#Cc1ccc(C2=NN(S(=O)(=O)c3ccc(Br)s3)CCCC2)cc1 as the compound, how does the Ki (Progesterone receptor [1]) read?
Answer: The Ki was 63.1 nM.

Question: What does the source list for O=S(=O)(c1ccc(Br)s1)N1CCCCC(c2cccc(Br)c2)=N1?
Answer: Ki (Progesterone receptor [1]): 63.1 nM; IC50 (Progesterone receptor [2]): 251 nM

Question: With O=S(=O)(c1ccc(Cl)cc1Cl)N1CCCCC(c2ccc(Cl)c(Cl)c2)=N1 as the compound, how does the Ki (Progesterone receptor [1]) read?
Answer: The Ki was 50.1 nM.

Question: And the IC50 (Progesterone receptor [2])?
Answer: The IC50 was 200 nM.

Question: Which Ki (Progesterone receptor [1]) does the source give for O=S(=O)(c1ccc(Cl)s1)N1CCCCC(c2ccccc2Cl)=N1 here?
Answer: Its Ki is 200 nM.

Question: And the IC50 (Progesterone receptor [2])?
Answer: Its IC50 is 631 nM.

Question: How did the Ki (Progesterone receptor [1]) turn out when O=S(=O)(c1ccc(Cl)s1)N1CCCCC(c2ccc(Cl)c(Cl)c2)=N1 was run?
Answer: Its Ki is 39.8 nM.

Question: What does the source list for N#Cc1ccc(C2=NN(S(=O)(=O)c3ccccc3F)CCCC2)cc1?
Answer: Ki (Progesterone receptor [1]): 1000 nM; IC50 (Progesterone receptor [2]): 398 nM

Question: Cc1c(Cl)cccc1S(=O)(=O)N1CCCCC(c2cccc(Cl)c2)=N1 was tested. Which Ki (Progesterone receptor [1]) did it give?
Answer: Its Ki is 316 nM.

Question: And the IC50 (Progesterone receptor [2])?
Answer: Its IC50 is 2000 nM.
